Experiments:
[1] = system: immobilized Aβ40 and Aβ42 peptides; test: Solid-phase binding assay (ELISA) of apoE preparations to immobilized Aβ peptides; settings: delipidated or lipidated (HDL/r-HDL) apoE3 and apoE4, 0-150 nM, 3 h
Experimental: The binding of apoE to Aβ species was studied by ELISA using immobilized freshly prepared (non-aggregated) or 72-h-aggregated Aβ40 and Aβ42 and apoE3 or apoE4 isoforms with different degrees of lipidation. Polystyrene microtitre plates (Immulon2; Dynex Technology, Chantilly, Va., U.S.A.) were coated for 2 h. at 37° C. with either fresh or aggregated Aβ40 and Aβ42 (40(0 ng in 100 μl of 0.1 M NaHCO3, pH 9.6, per well). Under these conditions, 10 ng of fresh Aβ40, 9.6 ng of fresh Aβ42, 10.2 ng of aggregated Aβ40 and 10.9 ng of aggregated Aβ42 (representing 2.5, 2.4, 2.6 and 2.7% of the peptide offered, respectively) were coated to the microtitre wells, as determined by a modification of the Quantigold assay (Diversified Biotech, Boston, Mass., U.S.A.) for protein quantification. After blocking with Superblock (Pierce), increasing concentrations of apoE (0-150 nM in TBS; 100 μl per well) were added to the Aβ-coated wells and incubated for 3 h. at 37° C. Bound apoE was detected with monoclonal anti-apoE antibody (3D12, 1:1000) followed by alkaline-phosphatase-conjugated goat F(ab′)2 anti-mouse IgG (1:3000; BioSource International, Camarillo, Calif., U.S.A.). The reaction was developed for 30 min. with p-nitrophenyl phosphate in diethanolamine buffer (Bio-Rad, Hercules, Calif., U.S.A.), and quantified at 405 nm on a Microplate Reader (Cambridge Technology, Watertown, Mass., U.S.A.). […]

Tg2576 APP mouse model [2] = test: Radial arm maze after immunization of Tg2576 mice; assay type: in vivo
Experimental: (§1) Briefly, mice received their first immunization with K6Aβ1-30-NH2(E18E19) at 10.5-13 months of age (peptide: n=23; vehicle: n=24). The animals were bled prior to vaccination, 3 months following the first injection and at the time of sacrifice at 18 to 21 months. The mice were tested in the radial arm maze, subsequently perfused and their brains processed as described (Sigurdsson et al., Am. J. Pathol. 2001; 159:439-4471) (peptide: n=18; vehicle: n=18).
The vaccination was performed in the Tg2576 APP mouse model developed by Karen Hsiao and colleagues (Hsiao et al., Science 1996:274:99-1022). These mice develop Aβ plaques as early as at 11 to 13 months of age. The animals were maintained on a 12-hour light-dark cycle, and had access to food and water ad libitum. The animal care was in accordance with institutional guidelines.
K6Aβ1-30-NH2(E18E19) was supplied as trifluoroacetic acid salt. […]
Animals were kept in test room throughout the experiment, behind a cover to prevent view of the apparatus and room. […] Total number of errors and time to enter all eight arms were recorded. […]
(§2) The data for the amyloid burden within the brain were analyzed by a Student's t-test, one-tailed (GraphPad Prism). The radial arm maze data was analyzed by two-way ANOVA repeated measures. […] Correlation was determined by calculating the Pearson r correlation coefficient.

Tg2576 APP mouse model [3] = test: Antibody levels in plasma by ELISA after immunization; assay type: in vivo; settings: for IgM response compared to IgG response: plasma at 1:500 dilution
Experimental: as §1
K6Aβ1-30-NH2(E18E19) was supplied as trifluoroacetic acid salt. The immunization procedure was performed as previously described by us (Sigurdsson et al., Am. J. Pathol. 2001; 159:439-4471) which is the same protocol as described by Schenk and colleagues (Schenk et al., Nature 1999; 400:173-1773) except that the peptide was not incubated overnight at 37° C. before injection. Briefly, the peptide was dissolved in phosphate-buffered saline (PBS) at a concentration of 2 mg/ml and then mixed 1:1 (v/v) with the adjuvant or PBS. Complete Freund's adjuvant was used for the first injection, incomplete Freund's adjuvant for the next three injections, and PBS from the fifth injection forward. The mice received a subcutaneous injection of 100 μl of the mixture (ie, 100 μg/100 μl) followed by a second injection 2 weeks later, and then monthly thereafter. Vaccination using the K6Aβ1-30-NH2(E18E19) peptide started when the mice were 10.5-13 months of age and the mice were sacrificed at 18-21 months of age.
Antibody levels were determined by 1:500 dilutions of plasma using an enzyme-linked immunosorbent assay (ELISA) as described previously (Jimenez-Huete et al., Alzheimers Reports 1998; 1:41-47) in which Aβ or its derivative is coated onto microtiter wells. The antibodies were detected by a goat anti-mouse IgG linked to a horseradish peroxidase (Amersham Pharmacia Biotech, Piscataway, N.J.) or a goat anti-mouse IgM peroxidase conjugate (Sigma, A8786), and tetramethyl benzidine (Pierce, Rockford, Ill.) was the substrate.

Aβ plaques = test: Histology and image analysis of Aβ plaques in brain (6E10 staining); assay type: in vivo, mouse
Experimental: as §1
Mice were anesthetized with sodium pentobarbital (150 mg/kg, intraperitoneally), perfused transaortically with phosphate buffer and the brains processed as previously described (Sigurdsson et al., Neurobiol. Aging 1996; 17:893-901) The right hemisphere was immersion fixed in periodate-lysine-paraformaldehyde (PLP), whereas the left hemisphere was snap-frozen for measurements of Aβ3 levels using established ELISA methods (Mehta et al., Arch. Neurol. 2000; 57:100-105). Serial coronal sections (40 μm) were cut and every fifth section was stained with 6E10 which recognizes Aβ and stains both pre-amyloid and Aβ plaques (Kim et al., Neurosci Res Comm 1990; 7:113-122). […]
Immunohistochemistry of tissue sections was quantified with a Bioquant image analysis system, and unbiased sampling was used (West et al., Trends Neurosci. 1999; 22:51-61). […] Cortical area analyzed was dorsomedially from the cingulate cortex and extended ventrolaterally to the rhinal fissure within the right hemisphere. The area of the grid was 800×800 μm^2 and amyloid load was measured in 20 frames per mouse (each: 640×480 μm^2), chosen randomly. […] The number of plaques were also counted and the plaques were divided into three groups based on their size (small: 0.01-50 μm^2; medium: 50.01-1000 μm^2; large: >1000 μm^2).
as §2

immobilized Aβ40 and Aβ42 peptides, sequence (P05067 672-711 limits assumed): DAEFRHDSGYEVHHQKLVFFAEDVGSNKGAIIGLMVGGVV

For “apoE: human apoE3 or apoE4 from Sf9, HEK-293 or RAW-264 cells, delipidated or in HDL/r-HDL particles”, the “binding of apoE to Aβ” value [1] was “high affinity”.

With “K6Aβ1-30(E18E19): first 30 amino acids of amyloid-β with glutamate substituted for valine and phenylalanine in positions 18 and 19” the “errors in the radial arm maze compared to vehicle-treated controls” value (Tg2576 APP mouse model [2]; Tg2576 transgenic mice, two-way ANOVA repeated measures, p<0.05) was “significantly fewer errors”, the “radial arm maze performance compared to day 1” value (Tg2576 APP mouse model [2]; immunized mice, p<0.01-0.05) was “showed improvements on days 3, 5, and 7-9” and the “cross-reactivity of generated IgM antibodies” value (Tg2576 APP mouse model [3]; IgM antibodies after immunization) was “cross-reacted with Aβ1-40”. The “IgM response compared to IgG response” value (Tg2576 APP mouse model [3]) was “substantially more pronounced IgM response compared to IgG response”, the “IgM response compared to IgG response” value (Tg2576 APP mouse model [3]; listed as K6Aβ1-30-NH2(E18E19)) was “high IgM response and low IgG response” and the “effect on large plaques” value (Aβ plaques; large: >1000 μm^2) was “not significantly (N.S.) affected”. For the same substance, the “reduction of medium sized plaques” value (Aβ plaques; medium: 50.01-1000 μm^2, p=0.04) was 29% and the “reduction of small plaques” value (Aβ plaques; small: 0.01-50 μm^2, p=0.02) was 34%.

Source: patent US9409146B2, “Method for treating amyloid disease” (New York University, priority 2002, dated 2016)
